Data as given in patent publication US20030139352A1, “Inhibitors of ABC drug transporters in cancer cells” (priority 2001, published 2003).
Like-named read-outs stand apart in the source and are kept apart here.

How the values were obtained:
[1] = test system: CLA (control) Monolayer, LLC-PK1 cells; details: 10 μM in donor
human PGP [2] = target: T1, human PGP (Homo sapiens, UniProt P08183); assay: Inhibition of human PGP-mediated [3H]-digoxin transport in 15B-J (LLC-PK1 expressing human PGP) monolayers
T1 sequence (P08183 whole entry): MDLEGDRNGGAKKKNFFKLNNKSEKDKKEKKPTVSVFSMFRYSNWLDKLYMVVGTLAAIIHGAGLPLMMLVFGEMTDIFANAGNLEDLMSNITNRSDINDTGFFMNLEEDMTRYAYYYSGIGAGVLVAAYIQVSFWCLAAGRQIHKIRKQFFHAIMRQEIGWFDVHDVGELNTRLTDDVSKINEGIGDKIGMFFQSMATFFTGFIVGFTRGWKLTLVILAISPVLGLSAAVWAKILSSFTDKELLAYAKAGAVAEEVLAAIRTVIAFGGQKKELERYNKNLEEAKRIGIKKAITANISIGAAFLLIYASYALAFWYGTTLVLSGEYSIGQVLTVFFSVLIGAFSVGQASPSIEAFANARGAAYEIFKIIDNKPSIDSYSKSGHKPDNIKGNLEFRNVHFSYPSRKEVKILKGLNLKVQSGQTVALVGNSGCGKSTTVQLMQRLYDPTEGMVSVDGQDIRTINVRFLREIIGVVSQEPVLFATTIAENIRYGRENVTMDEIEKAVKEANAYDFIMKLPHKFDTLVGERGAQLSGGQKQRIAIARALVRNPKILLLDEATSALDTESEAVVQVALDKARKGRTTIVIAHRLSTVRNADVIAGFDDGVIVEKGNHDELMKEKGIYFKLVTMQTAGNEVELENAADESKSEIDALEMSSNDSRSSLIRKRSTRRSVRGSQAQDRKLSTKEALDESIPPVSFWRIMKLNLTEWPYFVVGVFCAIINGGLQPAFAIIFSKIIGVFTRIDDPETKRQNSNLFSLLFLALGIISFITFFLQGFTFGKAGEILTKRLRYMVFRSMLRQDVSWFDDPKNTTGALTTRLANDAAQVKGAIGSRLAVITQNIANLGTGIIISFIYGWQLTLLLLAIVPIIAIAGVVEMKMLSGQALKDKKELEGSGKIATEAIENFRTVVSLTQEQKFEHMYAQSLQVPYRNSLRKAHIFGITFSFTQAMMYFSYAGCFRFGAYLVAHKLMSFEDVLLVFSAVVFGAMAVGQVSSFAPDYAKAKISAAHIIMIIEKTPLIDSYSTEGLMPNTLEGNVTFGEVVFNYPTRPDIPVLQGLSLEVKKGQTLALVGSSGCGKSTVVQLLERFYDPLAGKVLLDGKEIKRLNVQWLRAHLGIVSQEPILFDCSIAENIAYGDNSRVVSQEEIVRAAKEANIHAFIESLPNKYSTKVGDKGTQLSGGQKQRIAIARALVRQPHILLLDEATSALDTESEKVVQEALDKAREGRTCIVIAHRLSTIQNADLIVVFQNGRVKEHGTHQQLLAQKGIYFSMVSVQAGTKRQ

[3] = target: human PGP (P-glycoprotein) (Homo sapiens, UniProt P08183); assay: as above; details: human, pH 7.2, Ketoconazole Normalized % Inhibition of Digoxin Transport, normalized to 25 μM ketoconazole
Sequence of human PGP (P-glycoprotein) (P08183 whole entry): as above

[4] = target: human PGP membranes (PGP-associated ATPase) (Homo sapiens, UniProt P08183); details: for ATPase Activity: orthovanadate-sensitive; for ATPase Activity, basal activity subtracted: human, 20 min
Sequence of human PGP membranes (PGP-associated ATPase) (P08183 whole entry): as above
Method: The DMSO concentration (1.0%) was constant for all conditions within the experiment.
The test substances were incubated in the PGP membranes and supplemented with MgATP, with and without sodium orthovanadate present. Orthovanadate inhibits PGP by trapping MgADP in the nucleotide binding site. Thus, the ATPase activity measured in the presence of orthovanadate represents non-PGP ATPase activity and was subtracted from the activity generated without orthovanadate to yield ATPase activity.
(§1) ATPase assays were conducted in 96-well microtiter plates. A 0.06 mL reaction mixture containing 40 μg PGP membranes, test substance, and 4 mM MgATP, in buffer containing 50 mM Tris-MES, 2 mM EGTA, 50 mM KCl, 2 mM dithiothreitol, and 5 mM sodium azide, plus organic solvent was incubated at 37° C. for 20 minutes. […] Identical reaction mixtures containing 100 μM sodium orthovanadate were assayed in parallel. The reactions were stopped by the addition of 30 μl of 10% SDS+Antifoam A. The incubations were followed with addition of 200 μl of 35 mM Ammonium Molybdate in 15 mM Zinc Acetate: 10% Ascorbic Acid (1:4) and incubated for an additional 20 minutes at 37° C. Additionally, 0.06 mL aliquots of potassium phosphate standards prepared in the buffer described above, were incubated in the plates containing the test and control substances, with SDS and detection reagent added. The liberation of inorganic phosphate was detected by its absorbance at 800 nm and quantitated by comparing the absorbance to a phosphate standard curve. The concentration dependence of the PGP was analyzed for evidence of saturation of PGP-associated ATPase activity, and apparent kinetic parameters were calculated by non-linear regression.
as §1, with “plates.” for “plates. A 0.06 mL reaction mixture containing 40 μg PGP membranes, test substance, and 4 mM MgATP, in buffer containing 50 mM Tris-MES, 2 mM EGTA, 50 mM KCl, 2 mM dithiothreitol, and 5 mM sodium azide, plus organic solvent was incubated at 37° C. for 20 minutes.”, “activity.” for “activity, and apparent kinetic parameters were calculated by non-linear regression.”
as §1, with “plates.” for “plates. A 0.06 mL reaction mixture containing 40 μg PGP membranes, test substance, and 4 mM MgATP, in buffer containing 50 mM Tris-MES, 2 mM EGTA, 50 mM KCl, 2 mM dithiothreitol, and 5 mM sodium azide, plus organic solvent was incubated at 37° C. for 20 minutes.”

human PGP [5] = target: T1, human PGP; details: 15B-J vs CLA monolayers

Cc1ccc(NC(=O)c2ccc(CN3CCNCC3)cc2)cc1Nc1nccc(-c2cccnc2)n1 [Gleevec metabolite]
pmoles in Receiver ([1]; A→B, 15 min): 8.4 pmol
pmoles in Receiver ([1]; A→B, 30 min): 2.76 pmol
pmoles in Receiver ([1]; A→B, 60 min): 1.6 pmol
pmoles in Receiver ([1]; A→B, 90 min): 2.0 pmol
pmoles in Receiver ([1]; A→B, 120 min): 1.7 pmol
pmoles in Receiver ([1]; B→A, 15 min): 1.0 pmol
pmoles in Receiver ([1]; B→A, 30 min): 0.86 pmol
pmoles in Receiver ([1]; B→A, 60 min): 0.7 pmol
pmoles in Receiver ([1]; B→A, 90 min): 0.9 pmol
pmoles in Receiver ([1]; B→A, 120 min): 1.9 pmol

C=CCN1CC[C@]23c4c5ccc(O)c4O[C@H]2C(=O)CC[C@@]3(O)[C@H]1C5 [Naloxone, naloxone]
inhibition of PGP-mediated digoxin transport (in words) (human PGP [2]; 5 μM [3H]-digoxin, 15B-J monolayers): the inhibition was not concentration-dependent
Activity 2 (human PGP [2]; high capacity, low affinity binding site): 30 µM
Activity 1 (human PGP [2]; low capacity, high affinity binding site): 1.0 nM
inhibition at 90 min, 0.0001 μM ([3]; 0.0001 μM test substance): 6.2%
inhibition at 90 min, 0.0003 μM ([3]; 0.0003 μM test substance): 8.4%
inhibition at 90 min, 0.001 μM ([3]; 0.001 μM test substance): 10%
inhibition at 90 min, 0.01 μM ([3]; 0.01 μM test substance): -4.5%
inhibition at 90 min, 0.03 μM ([3]; 0.03 μM test substance): 5.7%
inhibition at 90 min, 0.1 μM ([3]; 0.1 μM test substance): -2.7%
inhibition at 90 min, 1 μM ([3]; 1.0 μM test substance): 7.8%
inhibition at 90 min, 3 μM ([3]; 3.0 μM test substance): -11%
inhibition at 90 min, 10 μM ([3]; 10 μM test substance): 0.4%
inhibition at 90 min, 30 μM ([3]; 30 μM test substance): 41%
inhibition at 90 min, 100 μM ([3]; 100 μM test substance): 37%
ATPase Activity ([4]; 0.001 μM test substance): -3.8 nmol/mg/min
ATPase Activity ([4]; 0.01 μM test substance): -0.8 nmol/mg/min
ATPase Activity ([4]; 0.03 μM test substance): 0.7 nmol/mg/min
ATPase Activity ([4]; 0.1 μM test substance): 3.6 nmol/mg/min
ATPase Activity ([4]; 0.3 μM test substance): -0.6 nmol/mg/min
ATPase Activity ([4]; 1.0 μM test substance): 0.4 nmol/mg/min
ATPase Activity ([4]; 3.0 μM test substance): 1.7 nmol/mg/min
ATPase Activity ([4]; 10 μM test substance): 2 nmol/mg/min
ATPase Activity ([4]; 30 μM test substance): 1.9 nmol/mg/min
ATPase Activity ([4]; 100 μM test substance): 1.8 nmol/mg/min
effect on PGP-associated ATPase activity (in words) ([4]; semi-quantitative assay): not to limit the ATPase activity

CC(=O)O[C@H]1C(=O)[C@@]2(C)[C@H]([C@H](OC(=O)c3ccccc3)[C@]3(O)C[C@H](OC(=O)[C@H](O)[C@@H](NC(=O)c4ccccc4)c4ccccc4)C(C)=C1C3(C)C)[C@]1(OC(C)=O)CO[C@@H]1C[C@@H]2O [Taxol, taxol]
effect on PGP-associated ATPase activity (in words) [4]: stimulates PGP-associated ATPase activity in a dose dependent manner
ATPase Activity, basal activity subtracted ([4]; 0.007 μM): -0.3 nmol/mg/min
ATPase Activity, basal activity subtracted ([4]; 0.01 μM): -0.4 nmol/mg/min
ATPase Activity, basal activity subtracted ([4]; 0.03 μM): -0.9 nmol/mg/min
ATPase Activity, basal activity subtracted ([4]; 0.05 μM): -0.9 nmol/mg/min
ATPase Activity, basal activity subtracted ([4]; 0.1 μM): -1.6 nmol/mg/min
ATPase Activity, basal activity subtracted ([4]; 0.42 μM): 2.5 nmol/mg/min
ATPase Activity, basal activity subtracted ([4]; 1.67 μM): 11.1 nmol/mg/min
ATPase Activity, basal activity subtracted ([4]; 3.33 μM): 12.8 nmol/mg/min
ATPase Activity, basal activity subtracted ([4]; 6.67 μM): 14.4 nmol/mg/min
transport by human PGP (in words) (human PGP [5]): significantly transported by human PGP
